Like-named read-outs stand apart in the source and are kept apart here.
What was measured:
P-TEFb (Cdk9/Cyclin T1) = target: T1, P-TEFb (Cdk9/Cyclin T1) (Homo sapiens, UniProt P50750); test: P-TEFb kinase assay with GST-CTD as substrate; type: biochemical; settings: 30° C., 1 hour
T1 construct: gift from Dr. Nekhai (Howard University)
Method: Purified P-TEFb (Cdk9/Cyclin T1) protein and GST-CTD (GST-tagged C-terminal domain of RNA polymerase II) expression plasmid were gifts from Dr. Nekhai (Howard University). GST-CTD protein was expressed in BL21 E. coli (Stratagene) and purified using a GST protein purification kit (Amersham Biosciences). The kinase assay was performed at 30° C. for 1 hour in the presence of P-TEFb with or without the addition of ARC. The phosphorylation levels of GST-CTD were detected with anti-phospho RNA polymerase II antibody (4735; Cell Signaling).
It is known that DRB and flavopiridol inhibit transcription by blocking the kinase activity of P-TEFb, which in turn leads to decreased phosphorylation of RNA polymerase II C-terminal domain (CTD). To determine if ARC operates by a similar mechanism, a kinase assay was performed with purified P-TEFb using GST-CTD (GST tagged C-terminal domain of RNA polymerase II) as the substrate. […] To evaluate this effect in vivo, HCT-116 cells were treated with ARC for 3 hours and analyzed levels of phospho-RNA polymerase II by immunoblotting. While the total amount of RNA polymerase II remained unchanged, phosphorylation of the RNA polymerase II CTD decreased upon ARC treatment (FIG. 2D), consistent with the in vitro kinase assay.

[1] = tested on: SV40-transformed MRC-5 human fetal lung fibroblasts; test: Apoptosis assays in SV40-transformed MRC-5 fibroblasts; type: cell-based; settings: 24 hours
Method: Immunoblotting was performed as described with antibodies specific for p53 (sc-126 HRP; Santa Cruz), hdm2 (sc-965; Santa Cruz), p21 (556431; BD Pharmingen), Sp1 (sc-59; Santa Cruz), survivin (sc-10811; Santa Cruz), phospho RNA polymerase II (4735; Cell Signaling), total RNA polymerase II (8WG16; a gift from Dr. Schlegel, University of Illinois at Chicago), α-tubulin (T9026; Sigma), cleaved caspase-3 (9664; Cell Signaling), caspase-9 (9502; Cell Signaling) and β-actin (A5441; Sigma) antibodies.
Apoptosis was detected either by DAPI (4′,6-diamidino-2-phenylindole) staining or by Flow Cytometry after PI (Propidium Iodide) staining. For DAPI staining, all treatments (DMSO or ARC) were done in triplicates in 6-well plates and cells were stained with DAPI and visualized by fluorescent microscopy. Four random fields for each sample were photographed and at least 500 cells per field were counted to estimate apoptosis. The data is represented as mean±Standard deviation (sd).
The ability of ARC to induce apoptosis in wild type and SV40-transformed MRC-5 human fetal lung fibroblasts was evaluated. Twenty-four hours after treatment with ARC, transformed fibroblasts underwent robust apoptosis (around 50% and 70%, respectively, with 5 and 10 μM of ARC) (FIGS. 4A and B). […] The transformed cell types may be more dependent on the survivin levels for their survival than their wild type counterparts and thus the reduction in these levels could be lethal to these cells.

[2] = tested on: HIV Tat-mediated transcription; test: HIV Tat-mediated transcription in HeLa MAGI cells; type: cell-based, human immunodeficiency virus (HIV); settings: 18 hours
Method: FIG. 10. ARC has antiviral activity against HIV (human immunodeficiency virus) in a cell culture model. HeLa MAGI cells were infected with Adeno-Tat and treated with different amounts of ARC for 18 hours after which, MTT was added to measure cell viability and B-Gal expression was measured by ONPG assay. B-Gal expression is indicative of HIV Tat transactivation ability. Assays were done in quadruplicates.

p53 = test: Gel shift assay with purified p53 phosphorylated by P-TEFb; type: binding; settings: purified p53, different concentrations
Method: Either purified p53 protein or nuclear extracts were used in the gel shift assays. For preparation of nuclear extracts, cells treated either with DMSO or different agents (doxorubicin, ARC and actinomycin D) were harvested 24 hours later and lysed in hypotonic buffer (10 mM HEPES pH 7.9, 1.5 mM MgCl2, 10 mM KCl, 0.2 mM PMSF, 0.5 mM DTT, 1 mM Na3VO4, 1 mM NaF, 1 mM Aprotinin and 1 mM Leupeptin), nuclei pelleted and treated with high-salt buffer (20 mM HEPES pH 7.9, 20% (v/v) glycerol, 1.5 mM MgCl2, 0.5 M KCl, 0.2 mM EDTA, 0.2 mM PMSF, 0.5 mM DTT, 1 mM Na3VO4, 1 mM NaF, 1 mM Aprotinin and 1 mM Leupeptin). Nuclear extracts (10 μg) or purified p53 protein (100 ng) were incubated with 0.5 ng of p53 consensus double-stranded oligos (5′-TACAGAACATGTCTAAGCATGCTGGGGACT-3′; Santa Cruz Biotechnology) that were labeled with [γ^32P]ATP. As a control, anti-p53 antibody (PAb421, EMD Biosciences) was used to supershift the p53/DNA complex. The reaction mixtures were resolved on a 4% acrylamide DNA-retardation gel, dried and exposed to X-ray film in the presence of intensifying screen.
In order to evaluate this activity, an in vitro kinase assay was performed with purified p53 protein and P-TEFb in the presence of different concentrations of ARC.

HUVECs = test: Cord formation assay; type: cell-based; settings: Homo sapiens, HUVEC, 24 hours, averages from three trials
Method: Different angiogenesis assays such as cord formation assay, motility assay and proliferation inhibition assay were performed at the developmental therapeutics program (DTP) branch of NCI (NCI/DTP) as described. HUVECs were used for all the assays. Taxol and TNP-470 were used as positive control for the assays.
For cord formation assay, HUVECs were plated on a three dimensional layer of Matrigel, where the cells formed cord-like structures. Later, the cells were treated with vehicle (DMSO) or different concentrations of ARC for 24 hours, after which cord formation was quantitated as a function of cord junctions and cord length.

T1 sequence (P50750 whole entry, species assumed): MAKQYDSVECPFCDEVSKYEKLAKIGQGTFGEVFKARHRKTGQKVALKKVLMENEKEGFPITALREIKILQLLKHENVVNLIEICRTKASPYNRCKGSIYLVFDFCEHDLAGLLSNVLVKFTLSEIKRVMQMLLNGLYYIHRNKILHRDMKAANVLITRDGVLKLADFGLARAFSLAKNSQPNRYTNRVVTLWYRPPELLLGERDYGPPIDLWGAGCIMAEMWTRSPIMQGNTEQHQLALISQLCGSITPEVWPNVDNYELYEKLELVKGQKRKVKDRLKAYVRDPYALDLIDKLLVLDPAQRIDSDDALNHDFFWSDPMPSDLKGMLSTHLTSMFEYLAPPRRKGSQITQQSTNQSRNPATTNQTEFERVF
T1 sequence (O60563 whole entry partner, species assumed): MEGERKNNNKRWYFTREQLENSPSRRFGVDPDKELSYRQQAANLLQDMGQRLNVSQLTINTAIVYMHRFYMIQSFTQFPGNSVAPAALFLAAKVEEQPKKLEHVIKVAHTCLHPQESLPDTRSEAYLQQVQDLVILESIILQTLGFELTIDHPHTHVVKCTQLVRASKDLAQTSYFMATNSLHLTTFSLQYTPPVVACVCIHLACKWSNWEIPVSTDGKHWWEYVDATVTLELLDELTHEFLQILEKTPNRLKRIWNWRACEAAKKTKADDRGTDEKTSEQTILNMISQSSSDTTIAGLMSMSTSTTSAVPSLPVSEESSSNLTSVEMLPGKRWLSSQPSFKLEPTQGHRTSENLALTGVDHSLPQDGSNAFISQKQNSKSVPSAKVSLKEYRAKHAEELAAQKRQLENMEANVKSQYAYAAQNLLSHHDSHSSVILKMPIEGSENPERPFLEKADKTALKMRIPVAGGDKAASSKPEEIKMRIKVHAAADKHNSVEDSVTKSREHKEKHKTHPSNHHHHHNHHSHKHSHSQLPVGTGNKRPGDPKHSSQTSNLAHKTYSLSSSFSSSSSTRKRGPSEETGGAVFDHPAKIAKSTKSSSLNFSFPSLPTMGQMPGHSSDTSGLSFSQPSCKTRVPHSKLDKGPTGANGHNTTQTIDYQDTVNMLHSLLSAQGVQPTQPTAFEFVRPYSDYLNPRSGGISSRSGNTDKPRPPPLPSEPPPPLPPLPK

NNc1c(C(N)=O)c2c(N)ncnc2n1[C@@H]1O[C@H](CO)[C@@H](O)[C@H]1O [ARC, 4-amino-6-hydrazino-7-beta-D-ribofuranosyl-7H-pyrrolo[2,3-d]-pyrimidine-5-carboxamide]
phosphorylation of GST-CTD by P-TEFb (P-TEFb (Cdk9/Cyclin T1)): potently decreased the phosphorylation of GST-CTD
apoptosis (DAPI staining) ([1]; 5 μM): around 50%
apoptosis (DAPI staining) ([1]; 10 μM): ~70%
cleaved caspase-3 [1]: appearance of cleaved caspase-3 was observed
survivin levels ([1]; wild type and SV40-transformed MRC-5 fibroblasts): further reduced
HIV Tat-mediated transcription (B-Gal expression) ([2]; HeLa MAGI cells infected with Adeno-Tat): efficiently inhibited HIV Tat-mediated transcription in a dose-dependent manner
rate of transcription versus cell viability (MTT) ([2]; HeLa MAGI cells): affected more than the viability of cells
DNA binding of p53 phosphorylated by P-TEFb (p53): inhibited this process in a dose-dependent manner
IC50 (HUVECs; read-out: IC50, cord junctions): ~0.345 µM
IC50 (HUVECs; read-out: IC50, cord length): ~0.382 µM

From patent US8207136B2, “Nucleoside compounds and methods of use thereof” (The Board of Trustees of the University of Illinois, priority 2005, dated 2012)
